From patent EP4563149A1, “LURBINECTEDIN, ECUBECTEDIN AND A RELATED COMPOUND FOR USE IN THE TREATMENT OF SKIN CANCERS” (Pharma Mar, S.A., priority 2023, dated 2025) come the findings set out here.

For one assay, the system named is 501mel^VemuR. Briefly: Cell viability assay (PrestoBlue), 72h. To be noted: Homo sapiens.
The subject of the next assay is Hermes3A. Briefly: Cell viability assay (PrestoBlue), 72h. Conditions: for IC50: Homo sapiens, Melanocyte, 72 h.
The next assay relates to MM047. The experiment in a line: Cell viability assay (PrestoBlue), 72h. Conditions: Homo sapiens.
The next assay relates to MM074^VemuR. Briefly: Cell viability assay (PrestoBlue), 72h. Conditions: Homo sapiens.
In the next assay the test system is MM074. The experiment in a line: Cell viability assay (PrestoBlue), 72h. Conditions: Homo sapiens.
The subject of another assay is MM117. The experiment in a line: Cell viability assay (PrestoBlue), 72h. Conditions: Homo sapiens.
Assay [1] relates to IGR37. Briefly: Cell viability assay (PrestoBlue), 72h. Conditions: Homo sapiens, IGR-37, 72 h.
Procedure: (§3) Cells were grown at 37°C in 5% CO2 (10% for Hermes 3A) and were regularly checked for mycoplasma contamination. […] Melanoma cell lines 501mel and SKmel28 were grown in RPMI w/o HEPES (Gibco, Invitrogen) supplemented with 10% FCS and gentamycin. Vemurafenib-resistant cells (501melVemuR and MM074VemuR) were additionally supplemented with 1.5 µM of vemurafenib. Melanoma IGR cell lines (IGR37 and IGR39) were grown in RPMI w/o HEPES (Gibco, Invitrogen) supplemented with 15% FCS and gentamycin.
(§4) To determine the IC50 (half maximal inhibitory concentration) of these cells to various inhibitors, cell viability assays were performed.
(§5) After 72h of treatment with different concentrations of the compounds, cells were treated with PrestoBlue reagent according to the manufacturer's instructions. The absorbance per well was measured with a Cellinsight CX5 microplate reader. Data were analyzed using Prism9 statistical software.
A further assay has as its system 501mel. Briefly: Cell viability assay (PrestoBlue), 72h. To be noted: Homo sapiens.
In assay [2] the test system is MM074 melanospheres. The experiment in a line: Melanosphere viability (CellTiterGlo). To be noted: 72h, doses equivalent to 5×IC50. Format: cell-based, human. The method, then:
(§1) MM074 proliferative/differentiated cell line were seeded (5×10^4 cells) in ultra-low attachment hydrogel-layered 96 well plates in KO DMEM medium supplemented with 20% KSR, AANE, 2 mM Glutamax, Penicillin/Streptomycin and 100 uM Beta-mercaptoethanol. To allow for melanosphere formation, cells were left to grow for 4 days before drug treatment.
To analyze melanosphere viability after drug treatment, cells were treated with CellTiterGlo reagent (Promega) according to the manufacturer's instructions. Luminescence signals were measured with a Centro XS LB 960 microplate reader (Berthold).
(In general: Cellular ATP, detected with luciferase, serves as a proxy for viable cell number.)

The test system of another assay is MM029. The experiment in a line: Cell viability assay (PrestoBlue), 72h. To be noted: Homo sapiens.
For assay [3], the system named is IGR37. Briefly: Cell viability assay (PrestoBlue), 72h, last line of Table 2. To be noted: Homo sapiens, IGR-37, 72 h.
Procedure: (§6) Cells were grown at 37°C in 5% CO2 (10% for Hermes 3A) and were regularly checked for mycoplasma contamination. […] Melanoma IGR cell lines (IGR37 and IGR39) were grown in RPMI w/o HEPES (Gibco, Invitrogen) supplemented with 15% FCS and gentamycin.
as §4, §5
The next assay concerns MM099. The experiment in a line: Cell viability assay (PrestoBlue), 72h. To be noted: Homo sapiens.
For another assay, the system named is SKMEL-28. The experiment in a line: Cell viability assay (PrestoBlue), 72h. To be noted: Homo sapiens, SK-MEL-28, 72 h.
Another assay concerns MM011. The experiment in a line: Cell viability assay (PrestoBlue), 72h. Conditions: Homo sapiens.
Assay [4] relates to melanoma cells. The experiment in a line: Apoptosis by flow cytometry (AnnexinV-APC). Format: cell-based, human. Conditions: IC50 concentrations, Annexin V-APC. Here is the method:
(§2) After 48h of incubation, cells were rinsed and incubated with AnnexinV-APC (BD Biosciences). Cell proliferation and apoptosis were detected on a BD LSRFortessaTM Flow Cytometer. Data were analyzed with FlowJo software. To define slow proliferating or apoptotic cells: it was considered that slow proliferating cells represented the 30% of cells with the highest concentration of CellTrace Violet signal in the DMSO control. […] For apoptotic cells, it was considered the 20% of cells with the highest signal of AnnexinV-APC in the DMSO control.

Assay [5] relates to melanoma cells. The experiment in a line: Cell proliferation by CellTrace Violet flow cytometry. Format: cell-based, human. Conditions: IC50 concentrations, compared to DMSO. Here is the method:
as §2
Background: A flow cytometer gives signals particle by particle.

Assay [6] has as its system MM074 melanospheres. Briefly: Melanosphere apoptosis (AnnexinV-APC / propidium iodide). To be noted: 72h. Format: cell-based, human. The method, then: as §1
For apoptosis assays with 3D-grown melanoma cells, TrypLe Select 10x reagent (Gibco) was used to dissociate melanospheres to obtain single-cell suspensions. These cells were incubated with AnnexinV-APC (Biolegend) and Propidium Iodide (PI, Biolegend). With bivariant dot plots, it was distinguished between viable (AnnexinV-/PI-), early apoptotic (AnnexinV+/PI-), late apoptotic (AnnexinV+/PI+) and necrotic cells (AnnexinV-/PI+).

For another assay, the system named is melanoma cells 501mel. The experiment in a line: Cell cycle analysis by flow cytometry (PI). In kind it is cell-based, human. Conditions: IC50 concentrations. The method, then:
For cell cycle analysis, 2×10^6 cells were seeded in 6 well plates. […] After 2 washes with cold PBS, cells were incubated with RNAse A and PI for 1h in the dark, before being analyzed on a BD LSRFortessaTM Flow Cytometer. Data were analysed with FlowJo software.

In another assay the test system is all melanoma cells. Briefly: Cell viability assay (PrestoBlue), summary over all melanoma cells. Format: cell-based. To be noted: Homo sapiens, read-out: IC50 values.
In assay [7] the test system is melanoma cell cultures or cell lines. The experiment in a line: Clonogenic assay. Format: cell-based, human. To be noted: 48h at IC50 concentrations, then 10 days without drug. The method, then: Based on the cell viability assays conducted above, the efficacy of lurbinectedin, PM14 or Compound IA on melanoma cell proliferation was investigated. Initially, a clonogenic assay was performed. Cells were drug-treated at IC50 concentrations during 48h before seeding 1×10^3 or 2×10^3 cells in 6-well plates without drug, wherein they grew for 10 days to allow for colony formation. Afterwards, cells were fixed for 10min with 4% formaldehyde solution, washed once with PBS and stained with Crystal Violet solution 0.2% for 15 min. The wells were finally washed twice with deionized water, air dried, scanned and analyzed with Fiji software to count the number of colonies.

Assay [8] has as its system RPB1 (RNA pol II elongation subunit). Briefly: Immunoblotting of RPB1 in 501mel. In kind it is cell-based, human. Conditions: 24h at 5×IC50. Here is the method:
Cells were washed once with cold PBS, rinsed with a cell scraper, pelleted and resuspended in LSDB 0.5M buffer (0.5M KCI, 50mM Tris HCl pH 7.9, 20% Glycerol, 1% NP40, 1mM DTT, PIC). Afterwards cells were fully disrupted with 3 cycles of heat shock in liquid nitrogen and 37°C water bath and centrifugated 15min at 14,000rpm to pellet cell debris. Ten micrograms of extract were loaded on SDS-PAGE before transfer to nitro-cellulose membranes and immunoblotting.
(Immunoblotting shows a protein as a band on a membrane.)

Procedure for 501mel^VemuR: (§7) Cells were grown at 37°C in 5% CO2 (10% for Hermes 3A) and were regularly checked for mycoplasma contamination. MM patient-derived short-term melanoma cultures (MM011, MM074, MM117, MM029, MM047, MM099) were grown in HAM-F10 (Gibco, Invitrogen) supplemented with 10% Fetal Calf Serum (FCS), 25 mM HEPES, 5.2 mM GLUTAMAX and penicillin-streptomycin. Melanoma cell lines 501mel and SKmel28 were grown in RPMI w/o HEPES (Gibco, Invitrogen) supplemented with 10% FCS and gentamycin. Vemurafenib-resistant cells (501melVemuR and MM074VemuR) were additionally supplemented with 1.5 µM of vemurafenib. Melanoma IGR cell lines (IGR37 and IGR39) were grown in RPMI w/o HEPES (Gibco, Invitrogen) supplemented with 15% FCS and gentamycin.
as §4, §5
Procedure for Hermes3A: as §6, §4, §5
Procedure for MM011: as §3, §4, §5
Procedure for MM029: as §6, §4, §5
Procedure for MM047: as §6, §4, §5
Procedure for MM074^VemuR: as §7, §4, §5
Procedure for MM099: as §6, §4, §5
Procedure for MM117: as §3, §4, §5
Procedure for SKMEL-28: as §3, §4, §5

As a reminder, the IC50 is the concentration at which inhibition is half-maximal. With `CC(C)(C)c1nc(-c2cccc(NS(=O)(=O)c3c(F)cccc3F)c2F)c(-c2ccnc(N)n2)s1` [dabrafenib], the IC50 with 501mel^VemuR was > 50 nM; in the assay on Hermes3A, > 50 nM; with MM047 it was > 50 nM; in the assay on MM074^VemuR it was > 50 nM; in the assay with MM074, 4.68 nM; in the assay on MM117, > 50 nM. Moreover, the IC50 with IGR37 [1] is 25.3 nM; in the assay on 501mel, > 50 nM; with MM029 it was > 50 nM; in the assay with IGR37 [3], > 50 nM; with MM099, > 50 nM; in the assay with SKMEL-28, 1 nM. The IC50 with MM011 was > 50 nM. Besides, the “cell viability in 3D culture” value in the assay on MM074 melanospheres [2] is listed as “unable to reduce cell viability”.

With `COc1ccc2[nH]c3c(c2c1)CCN[C@]31CS[C@@H]2c3c(OC(C)=O)c(C)c4c(c3[C@H](COC1=O)N1[C@@H]2[C@H]2c3c(cc(C)c(OC)c3O)C[C@@H]([C@@H]1O)N2C)OCO4` [lurbinectedin], the apoptosis entry in the assay on melanoma cells [4] is recorded as “induction of apoptosis”. Besides, the melanoma cell proliferation result in the assay with melanoma cells [5] is reported as “significant inhibition”. The “late apoptotic cells positive for Annexin V and propidium iodide” value in the assay with MM074 melanospheres [6] is “substantial population of late apoptotic cells”. Also, the IC50 with 501mel^VemuR is 1.07 nM; in the assay on Hermes3A, 2.67 nM; in the assay with all melanoma cells, 0.3 to 4.73 nM; in the assay with MM047 it was 0.45 nM; with MM074^VemuR it was 1.36 nM; in the assay on MM074, 1.06 nM. In addition, the 50% inhibitory concentration (IC50) in the assay on MM117 came out at 0.3 nM; with IGR37 [1] it was 0.5 nM; in the assay on 501mel, 0.37 nM; with MM029, 1.28 nM; in the assay on IGR37 [3], 0.41 nM; with MM099 it was 0.73 nM. Besides, the IC50 came out at 1.17 nM with SKMEL-28 and 0.47 nM in the assay with MM011. Also, in the assay on Hermes3A (Hermes3A versus melanoma cells), the “sensitivity of non-cancerous Hermes3A immortalized melanocytes compared with the melanoma cells” value was “less sensitive”. The cell cycle progression result in the assay on melanoma cells 501mel is “notable blockade”. Besides, the “colony formation (number of colonies)” value in assay [7] is reported as “significant impact”. For the same compound, the “RPB1 (RNA pol II elongation subunit) degradation” value in assay [8] is on record as “minimal”. In the assay with MM074 melanospheres [2], the “cell viability in 3D culture” value was “significant cytotoxic effects”.

Consider `CCCS(=O)(=O)Nc1ccc(F)c(C(=O)c2c[nH]c3ncc(-c4ccc(Cl)cc4)cc23)c1F` [vemurafenib], for which the IC50 in the assay with 501mel^VemuR is > 10000 nM; in the assay with Hermes3A, > 10000 nM; in the assay with MM047, > 10000 nM; in the assay with MM074^VemuR, > 10000 nM; in the assay with MM074, 225 nM; with MM117, 488 nM. Also, the half-maximal inhibitory concentration (IC50) is 517 nM in the assay with IGR37 [1]; 2440 nM with 501mel; > 10000 nM with MM029; > 10000 nM in the assay on IGR37 [3]; > 10000 nM with MM099; > 10000 nM in the assay on SKMEL-28. Besides, the IC50 in the assay on MM011 is > 10000 nM.

Turning to `CC(=O)Nc1cccc(-n2c(=O)n(C3CC3)c(=O)c3c(Nc4ccc(I)cc4F)n(C)c(=O)c(C)c32)c1` [trametinib], the IC50 was > 50 nM with 501mel^VemuR; > 50 nM in the assay on Hermes3A; > 50 nM with MM047; 4.65 nM in the assay on MM074^VemuR; 0.51 nM in the assay with MM074; 10.2 nM in the assay with MM117. Moreover, the IC50 is 0.53 nM in the assay with IGR37 [1]; 3 nM in the assay with 501mel; > 50 nM with MM029; > 50 nM in the assay with IGR37 [3]; > 50 nM with MM099; 5.12 nM in the assay with SKMEL-28. Further, in the assay with MM011, the IC50 is > 50 nM.
